Reference: patent US10450318B2, “CXCR4 receptor antagonists” (BRISTOL-MYERS SQUIBB COMPANY, priority 2015, dated 2019)

Target: T1, CXCR4 receptors (Homo sapiens, UniProt P61073)
T1 construct: expressing endogenous CXCR4 receptors; endogenous in cells; host or cells: CCRF-CEM (human T lymphoblast cells)
Assay: CXCR4-CEM calcium flux assay, antagonist mode (inhibition of SDF-1α-induced calcium flux)
Format: cell-based
Conditions: inhibition of calcium flux induced by 4 nM SDF-1α in CCRF-CEM cells
Description: Exemplary compounds of the invention were tested for their ability to induce or inhibit calcium flux in CCRF-CEM cells. […] CXCR4-CEM Calcium Flux Assays. […] The cells were then equilibrated to room temperature for 30 minutes before assay. […] The serially diluted compounds were diluted to working concentrations with the same assay buffer to 0.5% DMSO. […] Activity of the compounds to induce calcium flux was monitored by FDSS in the “agonist mode” for 90 sec. For “antagonist mode” assessment, the cells are subsequently incubated for 25 min at room temperature. SDF-1α (R&D System Cat#350-NS/CF) was then added at a final concentration of 4 nM to stimulate the cells. Inhibition of SDF-1α-induced calcium flux was monitored by FDSS6000 for 90 sec. […] After correcting for background, EC50 values were determined. […] Inhibition data for the test compound over a range of concentrations was plotted as percentage inhibition of the test compound as compared to an internal control compound.

T1 sequence (P61073 whole entry): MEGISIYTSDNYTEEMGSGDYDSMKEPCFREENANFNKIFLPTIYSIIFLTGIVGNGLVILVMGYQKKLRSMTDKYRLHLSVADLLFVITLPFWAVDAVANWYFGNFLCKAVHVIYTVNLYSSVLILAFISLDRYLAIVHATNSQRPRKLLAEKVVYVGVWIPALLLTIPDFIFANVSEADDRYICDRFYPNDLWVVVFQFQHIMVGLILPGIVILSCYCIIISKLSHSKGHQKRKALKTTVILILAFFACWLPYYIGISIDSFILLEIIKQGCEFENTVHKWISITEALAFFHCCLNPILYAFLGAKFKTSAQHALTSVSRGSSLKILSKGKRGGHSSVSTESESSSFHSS

Compound	IC50
CN(Cc1cn2c(N3CCN(S(=O)(=O)c4cccs4)CC3)nccc2n1)[C@H]1CCCc2cccnc21 [Example 62, (S)-N-methyl-N-({5-[4-(thiophene-2-sulfonyl)piperazin-1-yl]imidazo[1,2-c]pyrimidin-2-yl}methyl)-5,6,7,8-tetrahydroquinolin-8-amine]	19600 nM
CN1CCC2CN(c3nccc4nc(CN(C)[C@H]5CCCc6cccnc65)cn34)CC21 (stereo partly drawn) [Example 100, (8S)-N-methyl-N-((5-(1-methylhexahydropyrrolo[3,4-b]pyrrol-5(1H)-yl)imidazo[1,2-c]pyrimidin-2-yl)methyl)-5,6,7,8-tetrahydroquinolin-8-amine]	210 nM
C[C@@H]1CN(c2nccc3nc(CN(C)[C@H]4CCCc5cccnc54)cn23)C[C@H](C)N1 [Example 73, (S)—N-((5-((3S,5R)-3,5-Dimethylpiperazin-1-yl)imidazo[1,2-c]pyrimidin-2-yl)methyl)-N-methyl-5,6,7,8-tetrahydroquinolin-8-amine]	120 nM
CN1CCC(N2CCN(c3nccc4nc(CN(C)[C@H]5CCCc6cccnc65)cn34)CC2)CC1 [Example 38, (S)-N-methyl-N-({5-[4-(1-methylpiperidin-4-yl)piperazin-1-yl]imidazo[1,2-c]pyrimidin-2-yl}methyl)-5,6,7,8-tetrahydroquinolin-8-amine]	420 nM
CN(Cc1cn2c(N3CCN(Cc4cccnc4)CC3)nccc2n1)[C@H]1CCCc2cccnc21 [Example 28]	11 nM
CN(Cc1cn2c(N3CCN(CCC(F)(F)F)CC3)nccc2n1)[C@H]1CCCc2cccnc21 [Example 36, (S)-N-methyl-N-({5-[4-(3,3,3-trifluoropropyl)piperazin-1-yl]imidazo[1,2-c]pyrimidin-2-yl}methyl)-5,6,7,8-tetrahydroquinolin-8-amine]	30700 nM
CN(Cc1nc2ccnc(N3CCNCC3)n2c1CO)[C@H]1CCCc2cccnc21 [Example 6, (S)-(2-((Methyl(5,6,7,8-tetrahydroquinolin-8-yl)amino)methyl)-5-(piperazin-1-yl)imidazo[1,2-c]pyrimidin-3-yl)methanol]	3.8 nM
CN(Cc1cn2c(N3CC4CNCC4C3)nccc2n1)[C@H]1CCCc2cccnc21 (stereo partly drawn) [Example 80, (8S)-N-((5-(hexahydropyrrolo[3,4-c]pyrrol-2(1H)-yl)imidazo[1,2-c]pyrimidin-2-yl)methyl)-N-methyl-5,6,7,8-tetrahydroquinolin-8-amine]	23 nM
CN1CCCC2CN(c3nccc4nc(CN(C)[C@H]5CCCc6cccnc65)cn34)CC21 (stereo partly drawn) [Example 103, (8S)-N-methyl-N-((5-(1-methyloctahydro-6H-pyrrolo[3,4-b]pyridin-6-yl)imidazo[1,2-c]pyrimidin-2-yl)methyl)-5,6,7,8-tetrahydroquinolin-8-amine]	260 nM
CC(CCN1CCN(c2nccc3nc(CN(C)[C@H]4CCCc5cccnc54)cn23)CC1)c1ccccc1 (stereo partly drawn) [Example 65, (S)-N-methyl-N-({5-[4-(3-phenylbutyl)piperazin-1-yl]imidazo[1,2-c]pyrimidin-2-yl}methyl)-5,6,7,8-tetrahydroquinolin-8-amine]	16 nM
CN(Cc1nc2ccnc(N3CCNCC3)n2c1CO)[C@H]1CCOc2cccnc21 [Example 71, (S)-(2-(((3,4-Dihydro-2H-pyrano[3,2-b]pyridin-4-yl)(methyl)amino)methyl)-5-(piperazin-1-yl)imidazo[1,2-c]pyrimidin-3-yl)methanol]	2.7 nM
CN(Cc1cn2c(N3CCN(S(=O)(=O)c4ccccc4)CC3)nccc2n1)[C@H]1CCCc2cccnc21 [Example 63, (S)-N-({5-[4-(benzenesulfonyl)piperazin-1-yl]imidazo[1,2-c]pyrimidin-2-yl}methyl)-N-methyl-5,6,7,8-tetrahydroquinolin-8-amine]	16700 nM
CC(C)S(=O)(=O)N1CCN(c2nccc3nc(CN(C)[C@H]4CCCc5cccnc54)cn23)CC1 [Example 40, (S)-N-methyl-N-({5-[4-(propane-2-sulfonyl)piperazin-1-yl]imidazo[1,2-c]pyrimidin-2-yl}methyl)-5,6,7,8-tetrahydroquinolin-8-amine]	14400 nM
CCOC(=O)CN1CCN(c2nccc3nc(CN(C)[C@H]4CCCc5cccnc54)cn23)CC1 [Example 48, ethyl 2-{4-[2-({methyl[(S)-5,6,7,8-tetrahydroquinolin-8-yl]amino}methyl)imidazo[1,2-c]pyrimidin-5-yl]piperazin-1-yl}acetate]	300 nM
CN(Cc1cn2c(N3CCN4CCCCC4C3)nccc2n1)[C@H]1CCCc2cccnc21 (stereo partly drawn) [Example 90, (8S)-N-methyl-N-((5-(octahydro-2H-pyrido[1,2-a]pyrazin-2-yl)imidazo[1,2-c]pyrimidin-2-yl)methyl)-5,6,7,8-tetrahydroquinolin-8-amine]	2.5 nM
CN(Cc1cn2c(N3CCNC(c4ccccc4)C3)nccc2n1)[C@H]1CCCc2cccnc21 (single isomer, unassigned) [Example 79]	56 nM
CC(C)NC(=O)N1CCN(c2nccc3nc(CN(C)[C@H]4CCCc5cccnc54)cn23)CC1 [Example 44, 4-[2-({methyl[(S)-5,6,7,8-tetrahydroquinolin-8-yl]amino}methyl)imidazo[1,2-c]pyrimidin-5-yl]-N-(propan-2-yl)piperazine-1-carboxamide]	9360 nM
CN(Cc1cn2c(N3CCN(Cc4cccs4)CC3)nccc2n1)[C@H]1CCCc2cccnc21 [Example 26, (S)-N-methyl-N-({5-[4-(thiophen-2-ylmethyl)piperazin-1-yl]imidazo[1,2-c]pyrimidin-2-yl}methyl)-5,6,7,8-tetrahydroquinolin-8-amine]	14 nM
CN(Cc1cn2c(N3CCN[C@H](CO)C3)nccc2n1)[C@H]1CCCc2cccnc21 [Example 86, ((S)-4-(2-((methyl((S)-5,6,7,8-tetrahydroquinolin-8-yl)amino)methyl)imidazo[1,2-c]pyrimidin-5-yl)piperazin-2-yl)methanol]	1.7 nM
CN(Cc1cn2c(N3CC4CNC4C3)nccc2n1)[C@H]1CCCc2cccnc21 (stereo partly drawn) [Example 89, (8S)-N-((5-(3,6-diazabicyclo[3.2.0]heptan-3-yl)imidazo[1,2-c]pyrimidin-2-yl)methyl)-N-methyl-5,6,7,8-tetrahydroquinolin-8-amine]	280 nM
CSc1nccc2nc(CN(C)[C@H]3CCCc4cccnc43)cn12 [Example 8, (S)—N-Methyl-N-((5-(methylthio)imidazo[1,2-c]pyrimidin-2-yl)methyl)-5,6,7,8-tetrahydroquinolin-8-amine]	89 nM
CN(Cc1cn2c(N3CCN[C@@H](CO)C3)nccc2n1)[C@H]1CCCc2cccnc21 [Example 85, ((R)-4-(2-((methyl((S)-5,6,7,8-tetrahydroquinolin-8-yl)amino)methyl)imidazo[1,2-c]pyrimidin-5-yl)piperazin-2-yl)methanol]	1.7 nM
CN1CCN(c2nccc3nc(CN(C)[C@H]4CCCc5cccnc54)cn23)C[C@H]1CO [Example 99, ((S)-1-methyl-4-(2-((methyl((S)-5,6,7,8-tetrahydroquinolin-8-yl)amino)methyl)imidazo[1,2-c]pyrimidin-5-yl)piperazin-2-yl)methanol]	27 nM
CN1CCN(c2nccc3nc(CN(C)[C@H]4CCCc5cccnc54)c(CO)n23)CC1 [Example 7, (S)-(2-((Methyl(5,6,7,8-tetrahydroquinolin-8-yl)amino)methyl)-5-(4-methylpiperazin-1-yl)imidazo[1,2-c]pyrimidin-3-yl)methanol]	2.4 nM
CN(Cc1cn2c(N3CCN(Cc4ccc(C(F)(F)F)cc4)CC3)nccc2n1)[C@H]1CCCc2cccnc21 [Example 64, (S)-N-methyl-N-{[5-(4-{[4-(trifluoromethyl)phenyl]methyl}piperazin-1-yl)imidazo[1,2-c]pyrimidin-2-yl]methyl}-5,6,7,8-tetrahydroquinolin-8-amine]	11 nM
Cc1cccc(CN2CCN(c3nccc4nc(CN(C)[C@H]5CCCc6cccnc65)cn34)CC2)c1 [Example 52, (S)-N-methyl-N-[(5-{4-[(3-methylphenyl)methyl]piperazin-1-yl}imidazo[1,2-c]pyrimidin-2-yl)methyl]-5,6,7,8-tetrahydroquinolin-8-amine]	2.9 nM
CN(Cc1cn2c(N3CCn4cnnc4C3)nccc2n1)[C@H]1CCCc2cccnc21 [Example 82, (S)-N-((5-(5,6-dihydro-[1,2,4]triazolo[4,3-a]pyrazin-7(8H)-yl)imidazo[1,2-c]pyrimidin-2-yl)methyl)-N-methyl-5,6,7,8-tetrahydroquinolin-8-amine]	3780 nM
CN(Cc1cn2c(N3CCN(C4CCC4)CC3)nccc2n1)[C@H]1CCCc2cccnc21 [Example 30, (S)-N-{[5-(4-cyclobutylpiperazin-1-yl)imidazo[1,2-c]pyrimidin-2-yl]methyl}-N-methyl-5,6,7,8-tetrahydroquinolin-8-amine]	190 nM
CN(Cc1cn2c(N3CCNCC3)nccc2n1)[C@H]1CCOc2cccnc21 [Example 70, (S)—N-Methyl-N-((5-(piperazin-1-yl)imidazo[1,2-c]pyrimidin-2-yl)methyl)-3,4-dihydro-2H-pyrano[3,2-b]pyridin-4-amine]	4.2 nM
CN(Cc1cn2c(N3CCN(CC(c4ccccc4)c4ccccc4)CC3)nccc2n1)[C@H]1CCCc2cccnc21 [Example 39, (S)-N-({5-[4-(2,2-diphenylethyl)piperazin-1-yl]imidazo[1,2-c]pyrimidin-2-yl}methyl)-N-methyl-5,6,7,8-tetrahydroquinolin-8-amine]	63 nM
